Assay results taken from PMC7985445, “Characterization of Plasmodium falciparum Pantothenate Kinase and Identification of Its Inhibitors From Natural Products” (Frontiers in Cellular and Infection Microbiology, 2021).
Like-named read-outs stand apart in the source and are kept apart here.

How the values were obtained:
[1] = biological target: T1, PfPanK1 (Plasmodium falciparum, UniProt Q8ILP4); experiment: Screening of natural compounds for PfPanK inhibitors and IC50 determination (recombinant enzyme, ADP Hunter Plus); type: biochemical
T1 sequence (Q8ILP4 1-519): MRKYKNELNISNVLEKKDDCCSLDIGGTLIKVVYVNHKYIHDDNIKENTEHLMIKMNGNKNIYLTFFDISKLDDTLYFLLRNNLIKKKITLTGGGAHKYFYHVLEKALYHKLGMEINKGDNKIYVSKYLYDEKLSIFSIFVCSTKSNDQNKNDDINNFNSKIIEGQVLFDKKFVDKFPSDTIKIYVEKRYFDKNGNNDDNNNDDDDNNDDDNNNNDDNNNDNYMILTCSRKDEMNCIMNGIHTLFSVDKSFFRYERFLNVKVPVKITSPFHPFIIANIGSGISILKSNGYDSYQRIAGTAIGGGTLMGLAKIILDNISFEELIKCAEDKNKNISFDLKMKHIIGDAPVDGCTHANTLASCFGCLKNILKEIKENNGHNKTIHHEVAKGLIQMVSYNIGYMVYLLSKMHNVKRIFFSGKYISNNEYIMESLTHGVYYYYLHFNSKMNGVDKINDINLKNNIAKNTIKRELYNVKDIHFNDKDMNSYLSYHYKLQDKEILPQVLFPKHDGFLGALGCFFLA
Description: We screened 247 compounds from the Kitasato Natural Products Library ([Mori et al., 2015]; [Nurkanto et al., 2018]) against PfPanK recombinant enzyme. Compounds were dissolved in 50% DMSO at a final concentration of 1 mg/ml.

[2] = system: Plasmodium falciparum sensitive strain 3D7; experiment: P. falciparum asexual blood stage growth, diaphorase-coupled LDH assay; type: cell-based; settings: 3D7, 72 h incubation, mean ± SEM, read-out: IC50 P. falciparum erythrocytic stages
Description: Before using, parasite culture was synchronized with 5% (w/v) d-sorbitol, as previously described ([Lambros and Vanderberg, 1979]). Ring stage 0.3% parasitemia (25 µl/well) were placed in a 384-well plate. Serial dilutions (50, 25, 12.5, 6.3, 3.1, 1.6, 0.8, and 0.4 μM) of each compound were used for calculating IC50. As the negative growth control, 50 µM of Mefloquine and 20 µM of Atovaquone were used. After 72 h of incubation, parasite growth was determined by diaphorase-coupled lactate dehydrogenase (LDH) assay, as previously described ([Hartuti et al., 2018]). Each well’s absorbance was measured at 650 nm using SpectraMax Paradigm®Multi-Mode microplate reader (Molecular Devices, San Jose, CA, USA). The IC50 values were analyzed and calculated with GraphPad PRISM 8.0 (San Diego, California USA).

[3] = system: P. falciparum K1 and FCR3 strain; settings: ref Ui et al., 2007, read-out: IC50 P. falciparum erythrocytic stages, cited from earlier work
[4] = system: various human cell lines; parameters: method as in Koizumi et al., 2009; settings: ref Koizumi et al., 2009; cited from earlier work
[5] = recombinant PfPanK1; mean ± SEM

Structure (SMILES)	inhibition ([1]; primary screening; 37°C, 2 h) [%]	IC50 [1, 5] [nM]	IC50 [2] [nM]	inhibition ([1]; 2 h, primary screening; 37°C) [%]	IC50 ([3]; FCR3 strain) [nM]	IC50 ([3]; K1 strain) [nM]	EC50 [4] [nM]
OC[C@H]1O[C@@H](Oc2ccc(/C=C/c3cc(O)c4c(c3)O[C@H](c3ccc(O)cc3)[C@H]4c3cc(O)cc(O)c3)cc2)[C@H](O)[C@@H](O)[C@@H]1O [Gnemonoside D]	85	57500 ± 3600	1900 ± 600	–	–	–	–
COc1c2c(c(O)c3c(=O)c4c(oc13)[C@@H](O)CC[C@@H]4O)-c1c3c(c4cc(C)n(C)c(=O)c4c1O)OCO[C@H]3C2 [Simaomicin α]	–	57600 ± 4800	–	76.9	0.018	0.083	0.3 to 19
